Assay results from paper PMC4445529, “Small molecule inhibition of group I p21-activated kinases in breast cancer induces apoptosis and potentiates the activity of microtubule stabilizing agents” (Breast Cancer Research : BCR, 2015).
pKi: −log10 of the molar value.

Molecular target: T1, PAK4 (Homo sapiens, UniProt O96013)
T1 construct: kinase domain
Assay: Z'-LYTE FRET peptide kinase assay with recombinant enzyme
Assay type: biochemical

T1 sequence (O96013 291-591 limits assumed): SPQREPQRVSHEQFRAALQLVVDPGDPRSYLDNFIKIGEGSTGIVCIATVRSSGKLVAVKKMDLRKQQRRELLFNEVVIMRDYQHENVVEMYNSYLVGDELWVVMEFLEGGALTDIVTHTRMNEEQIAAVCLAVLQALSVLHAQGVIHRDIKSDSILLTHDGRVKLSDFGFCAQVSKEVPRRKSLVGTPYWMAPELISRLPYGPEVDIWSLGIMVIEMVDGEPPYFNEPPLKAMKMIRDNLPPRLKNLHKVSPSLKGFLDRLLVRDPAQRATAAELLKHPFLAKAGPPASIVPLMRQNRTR

pKi: 5.62
Compound: CCn1c(=O)c(-c2ccc(-c3cncc(C)n3)cc2Cl)cc2cnc(NCCC3CCN(C)CC3)nc21 [FRAX1036]
